Measurements reported in ChEMBL document CHEMBL5104101, “Insights into the modular design of kinase inhibitors and application to Abl and Axl” (RSC Med Chem, 2022).
The source made the active and inactive calls. The calls are words filed in the database; no cut-off is given here.

Assays:
[1] = molecular target: Tyrosine-protein kinase ABL1 (Homo sapiens, UniProt P00519); experiment: Inhibition of NanoLuc-tagged ABL1 wild type (unknown origin) expressed in HEK293 cells by NanoBRET TE assay; assay type: cell-based
[2] = molecular target: Mitogen-activated protein kinase 11 (Homo sapiens) (UniProt Q15759); experiment: Inhibition of MAPK11 (unknown origin) by Nano-syn mobility shift assay
[3] = molecular target: Ephrin type-A receptor 2 (Homo sapiens) (UniProt P29317); experiment: Inhibition of EPH-A2 (unknown origin) by Nano-syn mobility shift assay
[4] = molecular target: High affinity nerve growth factor receptor (Homo sapiens) (UniProt P04629); experiment: Inhibition of NTRK1 (unknown origin) by Nano-syn mobility shift assay; conditions: concentration not given here
K562 = experiment: Cytotoxicity against human K562 cells assessed as cell growth inhibition incubated for 72 hrs by celltiter-glo luminescent cell viability assay; assay type: functional
[5] = molecular target: MAP kinase-interacting serine/threonine-protein kinase 1 (Homo sapiens) (UniProt Q9BUB5); experiment: Inhibition of MKNK1 (unknown origin) by Nano-syn mobility shift assay
[6] = molecular target: Platelet-derived growth factor receptor alpha (Homo sapiens) (UniProt P16234); experiment: Inhibition of PDFGRA (unknown origin) by Nano-syn mobility shift assay; conditions: concentration not given here
[7] = molecular target: MAP kinase-interacting serine/threonine-protein kinase 2 (Homo sapiens) (UniProt Q9HBH9); experiment: Inhibition of MKNK2 (unknown origin) by Nano-syn mobility shift assay
BaF3 [8] = experiment: Cytotoxicity against mouse BaF3 cells stably expressing ABL wildtype assessed as cell growth inhibition incubated for 72 hrs by celltiter-glo luminescent cell viability assay; assay type: functional
[9] = molecular target: Angiopoietin-1 receptor (Homo sapiens) (UniProt Q02763); experiment: Inhibition of TEK (unknown origin) by Nano-syn mobility shift assay; conditions: concentration not given here
Homo sapiens [10] = species on record: Homo sapiens; experiment: Inhibition of LYNB (unknown origin) by Nano-syn mobility shift assay; conditions: concentration not given here
Homo sapiens [11] = species on record: Homo sapiens; experiment: Inhibition of LYNA (unknown origin) by Nano-syn mobility shift assay; conditions: concentration not given here
[12] = molecular target: Mitogen-activated protein kinase 14 (Homo sapiens) (UniProt Q16539); experiment: Inhibition of MAPK14 (unknown origin) by Nano-syn mobility shift assay
BaF3 [13] = experiment: Cytotoxicity against mouse BaF3 cells stably expressing ABL-T315I mutant assessed as cell growth inhibition incubated for 72 hrs by celltiter-glo luminescent cell viability assay; assay type: functional
[14] = molecular target: Tyrosine-protein kinase ABL2 (Homo sapiens) (UniProt P42684); experiment: Inhibition of ABL2 (unknown origin) by Nano-syn mobility shift assay; conditions: concentration not given here
[15] = molecular target: Tyrosine-protein kinase Fgr (Homo sapiens) (UniProt P09769); experiment: Inhibition of FGR (unknown origin) by Nano-syn mobility shift assay
[16] = molecular target: Tyrosine-protein kinase Lck (Homo sapiens) (UniProt P06239); experiment: Inhibition of LCK (unknown origin) by Nano-syn mobility shift assay; conditions: concentration not given here
[17] = molecular target: Receptor-type tyrosine-protein kinase FLT3 (Homo sapiens) (UniProt P36888); experiment: Inhibition of FLT3 (unknown origin) by Nano-syn mobility shift assay; conditions: concentration not given here
[18] = molecular target: Fibroblast growth factor receptor 1 (Homo sapiens) (UniProt P11362); experiment: Inhibition of FGFR1 (unknown origin) by Nano-syn mobility shift assay
[19] = molecular target: Vascular endothelial growth factor receptor 2 (Homo sapiens) (UniProt P35968); experiment: Inhibition of KDR (unknown origin) by Nano-syn mobility shift assay
[20] = molecular target: Tyrosine-protein kinase receptor UFO (Homo sapiens) (UniProt P30530); experiment: Inhibition of AXL (unknown origin) by Nano-syn mobility shift assay
[21] = molecular target: Tyrosine-protein kinase receptor UFO (Homo sapiens, UniProt P30530); experiment: Inhibition of AXL (unknown origin) using peptide substrate in presence of ATP by radiometric HotSpot assay
[22] = molecular target: Fibroblast growth factor receptor 3 (Homo sapiens) (UniProt P22607); experiment: Inhibition of FGFR3 (unknown origin) by Nano-syn mobility shift assay
[23] = molecular target: RAF proto-oncogene serine/threonine-protein kinase (Homo sapiens) (UniProt P04049); experiment: Inhibition of CRAF (unknown origin) by Nano-syn mobility shift assay
[24] = molecular target: Vascular endothelial growth factor receptor 1 (Homo sapiens) (UniProt P17948); experiment: Inhibition of FLT1 (unknown origin) by Nano-syn mobility shift assay
[25] = molecular target: Platelet-derived growth factor receptor beta (Homo sapiens) (UniProt P09619); experiment: Inhibition of PDFGRB (unknown origin) by Nano-syn mobility shift assay
[26] = molecular target: Vascular endothelial growth factor receptor 3 (Homo sapiens) (UniProt P35916); experiment: Inhibition of FLT4 (unknown origin) by Nano-syn mobility shift assay
[27] = molecular target: Proto-oncogene tyrosine-protein kinase receptor Ret (Homo sapiens) (UniProt P07949); experiment: Inhibition of RET (unknown origin) by Nano-syn mobility shift assay
[28] = molecular target: Discoidin domain-containing receptor 2 (Homo sapiens) (UniProt Q16832); experiment: Inhibition of DDR2 (unknown origin) by Nano-syn mobility shift assay
[29] = molecular target: Ephrin type-A receptor 8 (Homo sapiens) (UniProt P29322); experiment: Inhibition of EPH-A8 (unknown origin) by Nano-syn mobility shift assay
[30] = molecular target: Muscle, skeletal receptor tyrosine-protein kinase (Homo sapiens) (UniProt O15146); experiment: Inhibition of MUSK (unknown origin) by Nano-syn mobility shift assay

Sequence of Mitogen-activated protein kinase 14 (Homo sapiens) (Q16539 whole entry): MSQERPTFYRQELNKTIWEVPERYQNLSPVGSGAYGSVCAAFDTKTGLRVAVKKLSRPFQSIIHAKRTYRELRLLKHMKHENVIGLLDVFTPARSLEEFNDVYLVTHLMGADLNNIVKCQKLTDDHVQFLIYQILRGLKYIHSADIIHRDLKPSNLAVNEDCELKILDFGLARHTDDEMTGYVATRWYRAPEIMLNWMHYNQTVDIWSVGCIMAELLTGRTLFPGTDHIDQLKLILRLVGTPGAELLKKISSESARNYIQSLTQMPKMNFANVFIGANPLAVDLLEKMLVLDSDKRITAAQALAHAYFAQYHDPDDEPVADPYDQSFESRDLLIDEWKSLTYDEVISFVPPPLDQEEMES
Sequence of RAF proto-oncogene serine/threonine-protein kinase (Homo sapiens) (P04049 whole entry): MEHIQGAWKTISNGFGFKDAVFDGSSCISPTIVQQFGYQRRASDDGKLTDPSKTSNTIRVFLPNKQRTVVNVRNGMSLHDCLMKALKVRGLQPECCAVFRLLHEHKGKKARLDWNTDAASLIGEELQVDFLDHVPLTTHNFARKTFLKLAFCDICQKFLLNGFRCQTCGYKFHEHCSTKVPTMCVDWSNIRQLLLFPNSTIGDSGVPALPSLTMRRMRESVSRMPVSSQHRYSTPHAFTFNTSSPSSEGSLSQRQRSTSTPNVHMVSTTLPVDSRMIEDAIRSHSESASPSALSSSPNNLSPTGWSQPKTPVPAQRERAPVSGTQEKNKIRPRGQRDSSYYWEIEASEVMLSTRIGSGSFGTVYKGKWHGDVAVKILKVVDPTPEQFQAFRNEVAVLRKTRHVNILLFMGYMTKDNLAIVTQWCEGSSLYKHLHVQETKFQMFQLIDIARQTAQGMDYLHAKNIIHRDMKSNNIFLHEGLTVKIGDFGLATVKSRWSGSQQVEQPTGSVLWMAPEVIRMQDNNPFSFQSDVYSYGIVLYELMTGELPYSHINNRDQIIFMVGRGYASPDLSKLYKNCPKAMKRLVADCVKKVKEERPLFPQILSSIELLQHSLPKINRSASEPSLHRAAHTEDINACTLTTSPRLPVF
Sequence of Tyrosine-protein kinase ABL2 (Homo sapiens) (P42684 whole entry): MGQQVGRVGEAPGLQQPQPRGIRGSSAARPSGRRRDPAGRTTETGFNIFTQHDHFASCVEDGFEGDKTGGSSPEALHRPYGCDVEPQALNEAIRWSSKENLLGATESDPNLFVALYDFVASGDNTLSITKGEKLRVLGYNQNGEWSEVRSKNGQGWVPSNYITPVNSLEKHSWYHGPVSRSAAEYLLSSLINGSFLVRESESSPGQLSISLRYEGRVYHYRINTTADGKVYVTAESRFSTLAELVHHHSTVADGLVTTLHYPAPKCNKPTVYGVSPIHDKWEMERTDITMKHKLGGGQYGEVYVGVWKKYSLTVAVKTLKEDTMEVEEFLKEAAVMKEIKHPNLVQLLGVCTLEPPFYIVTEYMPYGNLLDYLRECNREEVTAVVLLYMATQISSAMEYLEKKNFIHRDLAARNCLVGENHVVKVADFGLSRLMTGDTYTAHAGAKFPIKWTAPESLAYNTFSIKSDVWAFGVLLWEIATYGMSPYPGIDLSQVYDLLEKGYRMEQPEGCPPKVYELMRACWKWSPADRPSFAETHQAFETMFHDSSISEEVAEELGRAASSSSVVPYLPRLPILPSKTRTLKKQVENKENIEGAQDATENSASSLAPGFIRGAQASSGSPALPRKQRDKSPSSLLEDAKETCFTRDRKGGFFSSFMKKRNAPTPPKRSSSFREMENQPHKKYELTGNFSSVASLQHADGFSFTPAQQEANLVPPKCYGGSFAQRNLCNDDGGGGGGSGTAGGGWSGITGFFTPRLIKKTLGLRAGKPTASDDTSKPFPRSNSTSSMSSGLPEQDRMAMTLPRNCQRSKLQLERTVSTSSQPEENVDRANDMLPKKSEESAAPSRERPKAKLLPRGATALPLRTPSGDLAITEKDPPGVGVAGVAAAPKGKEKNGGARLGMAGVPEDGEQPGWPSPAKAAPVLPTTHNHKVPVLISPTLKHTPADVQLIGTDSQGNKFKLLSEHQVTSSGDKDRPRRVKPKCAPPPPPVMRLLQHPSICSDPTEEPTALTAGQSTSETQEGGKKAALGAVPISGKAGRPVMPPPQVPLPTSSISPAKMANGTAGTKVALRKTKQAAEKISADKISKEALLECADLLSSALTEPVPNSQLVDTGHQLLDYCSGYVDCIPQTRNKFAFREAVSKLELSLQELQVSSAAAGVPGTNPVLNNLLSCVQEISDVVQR
Sequence of Tyrosine-protein kinase ABL1 (P00519 whole entry): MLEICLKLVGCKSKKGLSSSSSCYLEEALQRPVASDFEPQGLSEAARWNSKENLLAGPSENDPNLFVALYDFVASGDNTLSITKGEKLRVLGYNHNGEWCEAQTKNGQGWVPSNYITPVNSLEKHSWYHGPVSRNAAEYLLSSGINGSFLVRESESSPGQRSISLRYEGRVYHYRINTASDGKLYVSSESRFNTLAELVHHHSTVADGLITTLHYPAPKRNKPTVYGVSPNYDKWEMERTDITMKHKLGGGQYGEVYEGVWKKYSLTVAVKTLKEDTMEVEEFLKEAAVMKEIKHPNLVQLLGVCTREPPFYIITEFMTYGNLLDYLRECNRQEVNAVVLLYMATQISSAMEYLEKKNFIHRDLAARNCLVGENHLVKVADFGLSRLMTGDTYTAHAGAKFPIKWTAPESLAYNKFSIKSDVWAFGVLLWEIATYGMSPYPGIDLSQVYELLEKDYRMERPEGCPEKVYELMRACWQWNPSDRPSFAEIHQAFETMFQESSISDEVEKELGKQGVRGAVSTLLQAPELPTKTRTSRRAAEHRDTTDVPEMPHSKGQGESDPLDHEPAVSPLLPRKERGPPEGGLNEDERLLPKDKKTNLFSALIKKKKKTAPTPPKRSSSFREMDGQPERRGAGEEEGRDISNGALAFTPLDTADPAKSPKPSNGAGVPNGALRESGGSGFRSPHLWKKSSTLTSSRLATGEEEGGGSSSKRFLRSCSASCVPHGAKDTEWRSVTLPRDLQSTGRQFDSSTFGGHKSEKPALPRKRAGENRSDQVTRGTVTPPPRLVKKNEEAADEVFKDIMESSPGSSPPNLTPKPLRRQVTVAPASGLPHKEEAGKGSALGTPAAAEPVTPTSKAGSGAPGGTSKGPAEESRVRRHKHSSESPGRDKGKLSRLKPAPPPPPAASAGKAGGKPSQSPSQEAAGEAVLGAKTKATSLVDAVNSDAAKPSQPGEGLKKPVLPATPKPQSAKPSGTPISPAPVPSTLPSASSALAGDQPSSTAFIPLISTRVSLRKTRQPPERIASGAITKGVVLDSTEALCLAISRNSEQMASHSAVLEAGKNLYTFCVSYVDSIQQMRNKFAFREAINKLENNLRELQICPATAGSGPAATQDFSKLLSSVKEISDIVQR
Sequence of Receptor-type tyrosine-protein kinase FLT3 (Homo sapiens) (P36888 whole entry): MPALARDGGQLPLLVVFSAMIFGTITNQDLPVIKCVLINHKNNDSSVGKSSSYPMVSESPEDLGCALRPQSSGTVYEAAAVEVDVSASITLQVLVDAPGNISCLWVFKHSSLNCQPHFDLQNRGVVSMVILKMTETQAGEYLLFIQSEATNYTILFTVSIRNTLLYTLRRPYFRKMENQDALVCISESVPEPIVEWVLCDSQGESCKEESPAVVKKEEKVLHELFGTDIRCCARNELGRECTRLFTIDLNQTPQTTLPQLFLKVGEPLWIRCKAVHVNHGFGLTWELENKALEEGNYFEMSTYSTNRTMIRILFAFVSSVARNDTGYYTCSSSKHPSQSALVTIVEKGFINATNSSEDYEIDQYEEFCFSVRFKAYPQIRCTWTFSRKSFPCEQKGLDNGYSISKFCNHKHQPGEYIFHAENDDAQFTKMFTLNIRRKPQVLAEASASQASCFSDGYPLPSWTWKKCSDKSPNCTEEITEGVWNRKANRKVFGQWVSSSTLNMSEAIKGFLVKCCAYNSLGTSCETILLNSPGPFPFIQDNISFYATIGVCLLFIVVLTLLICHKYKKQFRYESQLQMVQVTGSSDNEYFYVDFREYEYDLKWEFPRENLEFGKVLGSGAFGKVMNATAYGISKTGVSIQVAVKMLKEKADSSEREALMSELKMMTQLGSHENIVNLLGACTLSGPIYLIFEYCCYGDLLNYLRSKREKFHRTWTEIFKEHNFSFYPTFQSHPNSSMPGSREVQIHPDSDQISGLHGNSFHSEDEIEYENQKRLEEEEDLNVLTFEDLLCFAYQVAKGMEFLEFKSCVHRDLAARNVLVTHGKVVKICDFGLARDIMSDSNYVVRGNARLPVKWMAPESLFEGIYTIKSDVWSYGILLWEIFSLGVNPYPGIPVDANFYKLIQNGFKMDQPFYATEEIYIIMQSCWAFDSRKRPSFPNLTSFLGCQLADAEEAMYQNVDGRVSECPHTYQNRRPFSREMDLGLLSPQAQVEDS
Sequence of MAP kinase-interacting serine/threonine-protein kinase 2 (Homo sapiens) (Q9HBH9 whole entry, looked up): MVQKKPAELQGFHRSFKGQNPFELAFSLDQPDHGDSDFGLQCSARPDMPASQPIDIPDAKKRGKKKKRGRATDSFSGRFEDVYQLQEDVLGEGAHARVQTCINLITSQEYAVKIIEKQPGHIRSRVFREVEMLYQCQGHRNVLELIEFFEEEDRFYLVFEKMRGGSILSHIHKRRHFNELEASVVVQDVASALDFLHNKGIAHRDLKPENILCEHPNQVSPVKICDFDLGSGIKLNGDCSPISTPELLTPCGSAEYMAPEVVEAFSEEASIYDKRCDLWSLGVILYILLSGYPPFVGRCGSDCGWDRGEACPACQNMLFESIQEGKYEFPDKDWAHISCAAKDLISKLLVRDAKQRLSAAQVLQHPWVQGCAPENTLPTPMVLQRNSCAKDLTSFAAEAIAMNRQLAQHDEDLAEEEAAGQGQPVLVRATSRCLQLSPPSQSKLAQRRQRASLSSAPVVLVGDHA

Structure (SMILES): CN1CCN(Cc2ccc(NC(=O)Nc3ccc(Oc4ccc5ncncc5c4)cc3)cc2C(F)(F)F)CC1
- IC50 [1]: 15.7 nM
- inhibition [2]: Active
- inhibition [3]: Active
- inhibition [4]: > 50%
- GI50 (K562): 2.3 nM
- inhibition [5]: Active
- inhibition [6]: > 50%
- inhibition [7]: Active
- GI50 (BaF3 [8]): 83 nM
- inhibition [9]: > 50%
- inhibition (Homo sapiens [10]): > 50%
- inhibition (Homo sapiens [11]): > 50%
- inhibition [12]: Active
- GI50 (BaF3 [13]): 117 nM
- inhibition [14]: > 50%
- inhibition [15]: Active
- inhibition [16]: > 50%
- inhibition [17]: > 50%
- inhibition [18]: Active

Structure (SMILES): CC(C)(C)c1cc(NC(=O)Nc2ccc(Oc3ccc4ncccc4c3)cc2)n(-c2ccc3ncccc3c2)n1
- IC50 [1]: 345 nM
- inhibition [4]: > 50%
- GI50 (K562): 13 nM
- inhibition [19]: Active
- inhibition [20]: Active
- inhibition [6]: > 50%
- GI50 (BaF3 [8]): 164 nM
- inhibition [9]: > 50%
- inhibition (Homo sapiens [10]): > 50%
- IC50 [21]: 12 nM
- inhibition (Homo sapiens [11]): > 50%
- GI50 (BaF3 [13]): 801 nM
- inhibition [22]: Active
- inhibition [14]: > 50%
- inhibition [23]: Active
- inhibition [16]: > 50%
- inhibition [17]: > 50%

Structure (SMILES): CN1CCN(Cc2ccc(NC(=O)Nc3ccc(Oc4ccc5ncccc5c4)cc3)cc2C(F)(F)F)CC1
- IC50 [1]: 38.3 nM
- inhibition [2]: Active
- inhibition [4]: > 50%
- GI50 (K562): 6.9 nM
- inhibition [24]: Active
- inhibition [19]: Active
- inhibition [25]: Active
- inhibition [5]: Active
- inhibition [26]: Active
- inhibition [6]: > 50%
- inhibition [7]: Active
- GI50 (BaF3 [8]): 36 nM
- inhibition [9]: > 50%
- inhibition [27]: Active
- inhibition (Homo sapiens [10]): > 50%
- inhibition (Homo sapiens [11]): > 50%
- inhibition [12]: Active
- GI50 (BaF3 [13]): 162 nM
- inhibition [14]: > 50%
- inhibition [28]: Active
- inhibition [23]: Active
- inhibition [16]: > 50%
- inhibition [29]: Active
- inhibition [17]: > 50%
- inhibition [30]: Active

Structure (SMILES): CC(C)(C)c1cc(NC(=O)Nc2ccc(Oc3ccc4cccnc4c3)cc2)n(-c2ccc3ncccc3c2)n1
- IC50 [1]: 719 nM
- GI50 (K562): 239 nM
- inhibition [19]: Active
- GI50 (BaF3 [8]): > 5000 nM
- GI50 (BaF3 [13]): > 10000 nM
- inhibition [23]: Active

Structure (SMILES): CN1CCN(Cc2ccc(NC(=O)Nc3ccc(Oc4ccc5cccnc5c4)cc3)cc2C(F)(F)F)CC1
- IC50 [1]: 637 nM
- inhibition [2]: Active
- GI50 (K562): 451 nM
- inhibition [19]: Active
- inhibition [5]: Active
- inhibition [7]: Active
- GI50 (BaF3 [8]): > 10000 nM
- inhibition [12]: Active
- GI50 (BaF3 [13]): > 10000 nM
- inhibition [23]: Active

Structure (SMILES): CC(C)(C)c1cc(NC(=O)Nc2ccc(Oc3ccc4ncncc4c3)cc2)n(-c2ccc3ncccc3c2)n1
- inhibition [3]: Active
- inhibition [4]: > 50%
- GI50 (K562): 4 nM
- inhibition [20]: Active
- inhibition [6]: > 50%
- GI50 (BaF3 [8]): 66 nM
- inhibition [9]: > 50%
- GI50 (BaF3 [13]): 269 nM
- inhibition [22]: Active
- inhibition [14]: > 50%
- inhibition [15]: Active
- inhibition [16]: > 50%
- inhibition [17]: > 50%
- inhibition [18]: Active
